Data from US7528128B2, “Pyrrolo[2,1-C][1,4]benzodiazepine hybrids and a process for the preparation thereof” (Council of Scientific & Industrial Research, priority 2006, dated 2009).
Converted amounts (≈) assume the structure as drawn.

Columns and labels:
[1] = test system: duplex-form calf thymus DNA (CT-DNA); assay: Thermal denaturation studies with CT-DNA; assay type: binding; settings: for ΔTm after incubation at 37° C. for 0 h / ΔTm after incubation at 37° C. for 18 h / ΔTm after incubation at 37° C. for 36 h: [PBD]:[DNA] 1:5, CT-DNA 100 μM, ligand 20 μM; for ΔTm after incubation at 37° C. for 0 h: pH 7.00, 0 h; for ΔTm after incubation at 37° C. for 18 h: pH 7.00, 18 h; for ΔTm after incubation at 37° C. for 36 h: pH 7.00, 36 h; for course of ΔTm over 0 hr, 18 hr and 36 hr (in words): incubation at 37° C.
Experimental: Compounds were subjected to thermal denaturation studies with duplex-form calf thymus DNA (CT-DNA) using an adaptation of a reported procedure. Working solutions in aqueous buffer (10 mM NaH2PO4/Na2HPO4, 1 mM Na2EDTA, pH 7.00+0.01) containing CT-DNA (100 μm in phosphate) and the PBD (20 μm) were prepared by addition of concentrated PBD solutions in DMSO to obtain a fixed [PBD]/[DNA] molar ratio of 1:5. The DNA-PBD solutions were incubated at 37° C. for 0, 18, and 36 h prior to analysis. Samples were monitored at 260 nm using a Beckman DU-7400 spectrophotometer fitted with high performance temperature controller, and heating was applied at 1° C. min−1 in the 40-90° C. range. DNA helix coil transition temperatures (Tm) were obtained from the maxima in the (dA260)/dT derivative plots. Results are given as the mean ±standard deviation from three determinations and are corrected for the effects of DMSO co-solvent using a linear correction term. Drug-induced alterations in DNA melting behaviour are given by: ΔTm=Tm(DNA+PBD)−Tm (DNA alone), where the Tm value for the PBD-free CT-DNA is 69.0±0.01.

[2] = test system: selected human cancer cell lines; assay: In vitro cytotoxicity in selected human cancer cell lines (overall statements); assay type: cell-based; settings: Table 3
Experimental: (§1) In vitro evaluation of cytotoxic activity. The compound 5a, 5b, 5g, 5i and 5j were evaluated for in vitro anticancer activity against nine human tumour cells derived from six cancer types (colon, prostate, oral, lung, cervix and breast cancer) as shown in Table 3. […] Compounds 5a, 5b, 5g, 5i and 5j have been evaluated for their in vitro cytotoxicity in selected human cancer cell lines of colon (Colo205), lung (Hop-62), cervix (SiHa), prostate (DU145, PC3), oral (DWD, HT1080), and breast (MCF7, Zr-75-1) origin. A protocol of 48 h continuous drug exposure has been used and an […] has been used to estimate cell viability or growth. […] Compound 5a, Colo205 cell growth by 83%, DU145 cell growth by 84%, DWD cell growth by 70%, Hop62 cell growth by 87%, HT1080 cell growth by 80%, MCF7 cell growth by 73%, PC3 cell growth by 91%, SiHa cell growth by 67%, Zr-75-1 cell growth by 76%. Compound 5b, Colo205 cell growth by 20%, DU145 cell growth by 64%, DWD cell growth by 70%, Hop62 cell growth by 78%, HT1080 cell growth by 72%, MCF7 cell growth by 69%, PC3 cell growth by 72%, SiHa cell growth by 20%, Zr-75-1 cell growth by 20%. Compound 5g, Colo205 cell growth by 50%, DU145 cell growth by 20%, DWD cell growth by 94%, Hop62 cell growth by 84%, HT1080 cell growth by 94%, MCF7 cell growth by 71%, PC3 cell growth by 86%, SiHa cell growth by 74%, Zr-75-1 cell growth by 72%. Compound 5i, DU145 cell growth by 42%, Hop62 cell growth by 60%, HT1080 cell growth by 70%, Compound 5j, Colo205 cell growth by 44%, DU145 cell growth by 57%, DWD cell growth by 65%, Hop62 cell growth by 53%, HT1080 cell growth by 71%, PC3 cell growth by 81%, SiHa cell growth by 77%.

[3] = test system: DU145 (prostate); assay: In vitro cytotoxicity, 48 h continuous drug exposure; assay type: cell-based, human; settings: for Activity status in terms of IC50 value: DU145, Prostate; for cell growth by %: DU145, relative to untreated control cells
Experimental: as §1

[4] = test system: Zr-75-1 (breast); assay: as above; assay type: cell-based, human; settings: for cell growth by %: Zr-75-1, relative to untreated control cells
Experimental: as §1

[5] = test system: PC3 (prostate); assay: as above; assay type: cell-based, human; settings: for cell growth by %: PC3, relative to untreated control cells
Experimental: as §1

[6] = test system: SiHa (cervix); assay: as above; assay type: cell-based, human; settings: for cell growth by %: relative to untreated control cells
Experimental: as §1

[7] = test system: MCF7 (breast); assay: as above; assay type: cell-based, human; settings: for cell growth by %: MCF7, relative to untreated control cells
Experimental: as §1

[8] = test system: Colo205 (colon); assay: as above; assay type: cell-based, human; settings: for Activity status in terms of IC50 value: Colo205, Colon; for cell growth by %: Colo205, relative to untreated control cells
Experimental: as §1

[9] = test system: Hop62 (lung); assay: as above; assay type: cell-based, human; settings: for Activity status in terms of IC50 value: Hop62, Lung; for cell growth by %: Hop62, relative to untreated control cells
Experimental: as §1

[10] = test system: HT1080 (oral); assay: as above; assay type: cell-based, human; settings: for Activity status in terms of IC50 value: HT1080, Oral; for cell growth by %: HT1080, relative to untreated control cells
Experimental: as §1

[11] = test system: DWD (oral); assay: as above; assay type: cell-based, human; settings: for cell growth by %: relative to untreated control cells
Experimental: as §1

| Compound | ΔTm after incubation at 37° C. for 0 h [1] | ΔTm after incubation at 37° C. for 18 h [1] | ΔTm after incubation at 37° C. for 36 h [1] | course of ΔTm over 0 hr, 18 hr and 36 hr (in words) [1] | Activity status in terms of IC50 value [3] | cell growth by % [3] | Activity status in terms of IC50 value ([4]; Zr-75-1, Breast) | Activity status in terms of IC50 value ([5]; PC3, Prostate) | cell growth by % [5] | Activity status in terms of IC50 value ([6]; Cervix) | cell growth by % [6] | Activity status in terms of IC50 value ([7]; MCF7, Breast) | Activity status in terms of IC50 value [8] | cell growth by % [8] | Activity status in terms of IC50 value [9] | cell growth by % [9] | Activity status in terms of IC50 value [10] | cell growth by % [10] | Activity status in terms of IC50 value ([11]; Oral) | cell growth by % [11] | other results |
| --- | --- | --- | --- | --- | --- | --- | --- | --- | --- | --- | --- | --- | --- | --- | --- | --- | --- | --- | --- | --- | --- |
| 7-methoxy-8-{3-[2-benzoyl-(4,6-dichlorophenyloxy)propoxy]}-(11aS)-1,2,3,11a-tetra hydro-5H-pyrrolo[2,1-c][1,4]benzodiazepine-5-one [Compound 5g] | 1.4 °C | 1.6 °C | 2.3 °C | gradually increased | 80 µg/mL | 20% | 28 µg/mL | 14 µg/mL | 86% | 26 µg/mL | 74% | 29 µg/mL | 50 µg/mL | 50% | 16 µg/mL | 84% | 6 µg/mL | 94% | 6 µg/mL | 94% | cytotoxicity against some cancer cell lines (in words) [2]: promising cytotoxicity; cell growth by % [4]: 72%; cell growth by % [7]: 71% |
| 7-methoxy-8-{3-[2-benzoyl-(4-chlorophenyloxy)propoxy]}-(11aS)-1,2,3,11a-tetrahydro-5H-pyrrolo[2,1-c][1,4]benzodiazepine-5-one [Compound 5a] | 1.4 °C | 1.7 °C | 2.2 °C | gradually increased | 16 µg/mL | 84% | 24 µg/mL | 9 µg/mL | 91% | 43 µg/mL | 67% | 27 µg/mL | 17 µg/mL | 83% | 13 µg/mL | 87% | 20 µg/mL | 80% | 30 µg/mL | 70% | cytotoxicity against some cancer cell lines (in words) [2]: promising cytotoxicity; cell growth by % [4]: 76%; cell growth by % [7]: 73% |
| COc1cccc2c1C(=O)c1c(O)c3c(c(O)c1C2=O)C[C@@](O)(C(=O)CO)C[C@@H]3O[C@H]1C[C@H](N)[C@H](O)[C@H](C)O1 [ADR, Adriamycin, reference compound] | – | – | – | – | – | – | – | – | – | – | – | – | – | – | – | – | – | – | – | – | IC50 ([3]; Homo sapiens, DU-145, DU145, Prostate, read-out: Activity status in terms of IC50 value): 6 µg/mL (≈ 11 µM); IC50 ([4]; Homo sapiens, Zr-75-1, Breast, read-out: Activity status in terms of IC50 value): 5 µg/mL (≈ 9.2 µM); IC50 ([5]; Homo sapiens, PC3, Prostate, read-out: Activity status in terms of IC50 value): 5 µg/mL (≈ 9.2 µM); IC50 ([6]; Homo sapiens, Cervix, read-out: Activity status in terms of IC50 value): 5 µg/mL (≈ 9.2 µM); IC50 ([7]; Homo sapiens, MCF7, Breast, read-out: Activity status in terms of IC50 value): 5 µg/mL (≈ 9.2 µM); IC50 ([8]; Homo sapiens, COLO 205, Colo205, Colon, read-out: Activity status in terms of IC50 value): 5 µg/mL (≈ 9.2 µM); IC50 ([9]; Homo sapiens, HOP-62, Hop62, Lung, read-out: Activity status in terms of IC50 value): 5 µg/mL (≈ 9.2 µM); IC50 ([10]; Homo sapiens, HT-1080, HT1080, Oral, read-out: Activity status in terms of IC50 value): 4 µg/mL (≈ 7.36 µM); IC50 ([11]; Homo sapiens, Oral, read-out: Activity status in terms of IC50 value): 2 µg/mL (≈ 3.68 µM) |
| COc1cc2c(cc1OCCCCCCOc1c(Cl)cc(Cl)cc1C(=O)c1ccccc1)N=C[C@@H]1CCCN1C2=O [Compound 5i, 7-methoxy-8-{3-[2-benzoyl-(4,6-di-chlorophenyloxy)hexyloxy]}-(11aS)-1,2,3,11a-tetrahydro-5H-pyrrolo[2,1-c][1,4]benzodiazepine-5-one] | 1.5 °C | 1.9 °C | 2.6 °C | gradually increased | 58 µg/mL | 42% | >80 µg/mL | >80 µg/mL | – | >80 µg/mL | – | >80 µg/mL | >80 µg/mL | – | 40 µg/mL | 60% | 30 µg/mL | 70% | >80 µg/mL | – | – |
| COc1cc2c(cc1OCC(=O)Nc1ccc(Cl)cc1C(=O)c1ccccc1Cl)N=C[C@@H]1CCCN1C2=O [Compound 5j, 7-Methoxy-8-{N1-[4-chloro-2-(2-chlorobenzoyl)phenyl]2-oxyacetamido}-(11aS)-1,2,3,11a-tetrahydro-5H-pyrrolo[2,1-c][1,4]benzodiazepine-5-one] | 1.8 °C | 2.0 °C | 2.8 °C | gradually increased | 43 µg/mL | 57% | >80 µg/mL | 19 µg/mL | 81% | 23 µg/mL | 77% | 68 µg/mL | 56 µg/mL | 44% | 47 µg/mL | 53% | 29 µg/mL | 71% | 35 µg/mL | 65% | – |
| COc1cc2c(cc1O)N=CC1CCCN1C2=O (stereo not drawn) [DC-81, reference compound] | 0.3 °C | 0.7 °C | – | – | – | – | – | – | – | – | – | – | – | – | – | – | – | – | – | – | – |
